Measurements as given in the NIST ThermoML archive (doi:10.1021/je0501843).
Where “and” joins values, the source holds several entries; their conditions need not be identical. Equal entries are not always repeated.

Test: molar heat capacity at constant volume; wn = mass fraction of the nth substance listed
Settings: Fluid (supercritical or subcritical phases), Vacuum adiabatic calorimetry, w1 = 0.5001

FC(F)C(F)(F)F [pentafluoroethane] + FCF
Settings | molar heat capacity at constant volume
301 K, 4414 kPa | 70.23 J/K/mol
302 K, 4977 kPa | 70.17 J/K/mol
303 K, 5537 kPa | 70.3 J/K/mol
303 K, 5540 kPa | 70.03 J/K/mol
304 K, 6101 kPa | 69.82 J/K/mol
304 K, 6103 kPa | 69.96 J/K/mol
305 K, 6663 kPa | 69.83 J/K/mol and 69.76 J/K/mol
306 K, 7227 kPa | 69.97 J/K/mol
306 K, 7228 kPa | 70.45 J/K/mol
307 K, 7791 kPa | 70.07 J/K/mol
307 K, 7792 kPa | 70.29 J/K/mol
308 K, 8356 kPa | 69.75 J/K/mol
308 K, 8357 kPa | 69.97 J/K/mol
309 K, 8918 kPa | 70.23 J/K/mol and 69.75 J/K/mol
310 K, 9482 kPa | 70.03 J/K/mol
310 K, 9484 kPa | 69.9 J/K/mol
311 K, 10048 kPa | 70.12 J/K/mol
311 K, 10049 kPa | 69.86 J/K/mol
312 K, 10614 kPa | 69.67 J/K/mol
312 K, 10615 kPa | 69.66 J/K/mol
313 K, 11178 kPa | 69.33 J/K/mol
313 K, 11179 kPa | 69.43 J/K/mol
314 K, 11741 kPa | 69.02 J/K/mol
314 K, 11743 kPa | 69.3 J/K/mol
315 K, 12309 kPa | 69.15 J/K/mol and 68.67 J/K/mol
316 K, 12875 kPa | 69.06 J/K/mol
316 K, 12877 kPa | 68.75 J/K/mol
317 K, 13440 kPa | 68.83 J/K/mol and 68.21 J/K/mol
318 K, 14003 kPa | 67.4 J/K/mol
318 K, 14005 kPa | 68 J/K/mol
319 K, 14570 kPa | 67.78 J/K/mol
319 K, 14571 kPa | 68.05 J/K/mol
320 K, 15135 kPa | 67.81 J/K/mol
320 K, 15137 kPa | 68.49 J/K/mol
321 K, 15700 kPa | 67.05 J/K/mol
321 K, 15701 kPa | 67.37 J/K/mol
322 K, 16263 kPa | 66.48 J/K/mol
322 K, 16265 kPa | 66.83 J/K/mol
323 K, 16830 kPa | 66.97 J/K/mol and 66.81 J/K/mol
324 K, 17394 kPa | 66.92 J/K/mol
324 K, 17396 kPa | 66.39 J/K/mol
325 K, 5448 kPa | 69.93 J/K/mol
325 K, 17959 kPa | 66.13 J/K/mol
325 K, 17961 kPa | 66.31 J/K/mol
326 K, 5835 kPa | 69.81 J/K/mol
326 K, 5836 kPa | 71.48 J/K/mol
326 K, 18524 kPa | 65.89 J/K/mol
326 K, 18525 kPa | 66.07 J/K/mol
327 K, 6224 kPa | 70.12 J/K/mol
327 K, 6225 kPa | 69.92 J/K/mol
327 K, 19088 kPa | 66.16 J/K/mol
327 K, 19090 kPa | 66.42 J/K/mol
328 K, 6615 kPa | 70.49 J/K/mol
328 K, 6616 kPa | 71.47 J/K/mol
328 K, 19652 kPa | 66.1 J/K/mol
328 K, 19655 kPa | 66.08 J/K/mol
329 K, 7006 kPa | 70.47 J/K/mol
329 K, 7007 kPa | 71.63 J/K/mol
330 K, 7397 kPa | 69.74 J/K/mol
330 K, 7399 kPa | 71.02 J/K/mol
331 K, 7788 kPa | 69.69 J/K/mol
331 K, 7790 kPa | 71.06 J/K/mol
332 K, 8183 kPa | 71.27 J/K/mol
332 K, 8184 kPa | 70.57 J/K/mol
333 K, 8579 kPa | 70.36 J/K/mol and 71.51 J/K/mol
334 K, 8970 kPa | 71.08 J/K/mol
334 K, 8971 kPa | 69.51 J/K/mol
335 K, 9364 kPa | 69.28 J/K/mol and 70.76 J/K/mol
336 K, 9759 kPa | 69.92 J/K/mol and 70.89 J/K/mol
337 K, 10156 kPa | 71.33 J/K/mol
337 K, 10157 kPa | 70.6 J/K/mol
338 K, 6179 kPa | 73.09 J/K/mol
338 K, 10552 kPa | 71.08 J/K/mol
338 K, 10553 kPa | 69.86 J/K/mol
339 K, 6478 kPa | 73.25 J/K/mol
339 K, 10948 kPa | 68.64 J/K/mol and 70.46 J/K/mol
340 K, 6782 kPa | 73.55 J/K/mol
340 K, 11344 kPa | 69.16 J/K/mol
340 K, 11346 kPa | 71.1 J/K/mol
341 K, 7089 kPa | 73.85 J/K/mol
341 K, 11743 kPa | 69.77 J/K/mol
341 K, 11745 kPa | 71.13 J/K/mol
342 K, 7389 kPa | 73.14 J/K/mol
342 K, 12139 kPa | 69.04 J/K/mol
342 K, 12142 kPa | 70.69 J/K/mol
343 K, 7693 kPa | 72.74 J/K/mol
343 K, 12536 kPa | 68.97 J/K/mol
343 K, 12538 kPa | 70.99 J/K/mol
344 K, 7998 kPa | 73.01 J/K/mol
344 K, 12935 kPa | 69.06 J/K/mol
344 K, 12936 kPa | 70.57 J/K/mol
345 K, 8306 kPa | 73.42 J/K/mol
345 K, 13334 kPa | 70.04 J/K/mol
346 K, 8612 kPa | 73.52 J/K/mol
346 K, 13733 kPa | 70.31 J/K/mol
347 K, 6281 kPa | 76.51 J/K/mol
347 K, 8917 kPa | 72.76 J/K/mol
347 K, 14131 kPa | 69.61 J/K/mol
